The values that follow come from ChEMBL document CHEMBL4007415, “Thieno[3,2-b]pyrrole-5-carboxamides as New Reversible Inhibitors of Histone Lysine Demethylase KDM1A/LSD1. Part 1: High-Throughput Screening and Preliminary Exploration” (J Med Chem, 2017).

Data set [1] concerns the target T1, LSD1/CoREST complex (Homo sapiens, UniProt O60341). The data set is described as follows: Inhibition of recombinant human KDM1A/CoREST complex expressed in Escherichia coli using biotinylated H3K4me1 peptide as substrate preincubated for 10 mins with enzyme followed by substrate addition measured after 1 hr by TR-FRET HTS assay. (In general: In TR-FRET formats the signal depends on donor and acceptor labels being close together.)

In data set [2] the target is T2, Amine oxidase [flavin-containing] B (Homo sapiens, UniProt P27338).
T2 sequence (P27338 whole entry): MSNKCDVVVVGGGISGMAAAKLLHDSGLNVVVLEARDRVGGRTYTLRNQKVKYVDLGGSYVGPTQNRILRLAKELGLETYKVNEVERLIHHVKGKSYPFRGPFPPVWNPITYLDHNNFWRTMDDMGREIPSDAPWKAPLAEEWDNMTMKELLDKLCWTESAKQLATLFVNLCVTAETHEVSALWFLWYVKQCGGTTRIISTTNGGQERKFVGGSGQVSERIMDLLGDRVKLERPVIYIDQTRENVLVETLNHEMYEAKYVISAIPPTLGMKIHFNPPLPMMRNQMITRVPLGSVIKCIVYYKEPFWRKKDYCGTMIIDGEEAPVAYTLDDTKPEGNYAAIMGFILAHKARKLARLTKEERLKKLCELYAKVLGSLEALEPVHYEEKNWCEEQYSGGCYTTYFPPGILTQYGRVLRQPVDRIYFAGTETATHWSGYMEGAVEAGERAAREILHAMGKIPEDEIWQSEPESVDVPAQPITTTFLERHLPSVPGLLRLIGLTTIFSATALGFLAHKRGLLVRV
Description: Inhibition of recombinant human MAOB incubated for 15 mins measured after 30 mins by luminescence-Glo assay

In data set [3] the target is T3, Amine oxidase [flavin-containing] A (Homo sapiens, UniProt P21397).
T3 sequence (P21397 whole entry): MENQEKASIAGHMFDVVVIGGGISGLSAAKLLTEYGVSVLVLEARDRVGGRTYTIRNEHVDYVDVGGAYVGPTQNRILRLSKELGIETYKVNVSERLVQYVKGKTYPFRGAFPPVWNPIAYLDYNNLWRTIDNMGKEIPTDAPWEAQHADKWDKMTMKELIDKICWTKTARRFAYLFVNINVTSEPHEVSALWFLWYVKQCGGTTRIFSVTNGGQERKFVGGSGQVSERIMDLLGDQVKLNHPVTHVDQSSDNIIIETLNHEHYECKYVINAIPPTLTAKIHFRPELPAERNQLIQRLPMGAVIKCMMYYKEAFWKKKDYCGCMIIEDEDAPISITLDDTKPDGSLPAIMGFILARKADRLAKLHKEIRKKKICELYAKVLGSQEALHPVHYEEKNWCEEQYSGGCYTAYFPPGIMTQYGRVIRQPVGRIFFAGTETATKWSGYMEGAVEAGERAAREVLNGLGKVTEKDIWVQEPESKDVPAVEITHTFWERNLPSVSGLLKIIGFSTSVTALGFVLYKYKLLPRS
Description: Inhibition of recombinant human MAOA incubated for 15 mins measured after 30 mins by luminescence-Glo assay

The target of data set [4] is T4, Lysine-specific histone demethylase 2 (Homo sapiens, UniProt Q8NB78).
T4 sequence (Q8NB78 whole entry): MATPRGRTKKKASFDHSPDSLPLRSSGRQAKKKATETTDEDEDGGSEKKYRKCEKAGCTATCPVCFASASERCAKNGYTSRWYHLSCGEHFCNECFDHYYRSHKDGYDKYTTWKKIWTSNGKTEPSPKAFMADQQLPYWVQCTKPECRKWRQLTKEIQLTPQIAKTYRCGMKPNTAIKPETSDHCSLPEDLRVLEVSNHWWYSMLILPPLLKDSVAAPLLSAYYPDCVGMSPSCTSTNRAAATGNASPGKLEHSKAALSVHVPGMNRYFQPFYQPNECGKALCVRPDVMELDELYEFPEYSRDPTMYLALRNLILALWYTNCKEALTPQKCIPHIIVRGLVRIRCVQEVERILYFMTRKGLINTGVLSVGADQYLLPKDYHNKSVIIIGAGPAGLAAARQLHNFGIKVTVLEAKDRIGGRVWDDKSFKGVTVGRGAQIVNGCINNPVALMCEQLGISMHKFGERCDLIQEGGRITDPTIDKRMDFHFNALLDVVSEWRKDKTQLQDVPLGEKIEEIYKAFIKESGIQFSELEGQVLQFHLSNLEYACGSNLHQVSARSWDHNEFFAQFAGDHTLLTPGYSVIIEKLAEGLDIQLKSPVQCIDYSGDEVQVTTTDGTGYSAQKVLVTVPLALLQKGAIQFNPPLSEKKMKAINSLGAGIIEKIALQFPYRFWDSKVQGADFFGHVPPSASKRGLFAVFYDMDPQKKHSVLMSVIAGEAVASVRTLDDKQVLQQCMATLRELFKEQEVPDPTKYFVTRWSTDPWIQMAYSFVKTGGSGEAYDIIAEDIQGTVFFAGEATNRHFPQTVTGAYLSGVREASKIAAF
Description: Inhibition of KDM1B (unknown origin)

Data set [5] addresses T1, LSD1/CoREST complex. The data set is described as follows: Competitive inhibition of recombinant human KDM1A/CoREST complex expressed in Escherichia coli using H3K4me1 peptide as substrate preincubated for 15 mins followed by substrate addition measured for 12 mins by Lineweaver-Burk plot analysis.
In data set [6] the target is T1, LSD1/CoREST complex.
Description: Inhibition of recombinant human KDM1A/CoREST complex expressed in Escherichia coli using biotinylated H3K4me1 peptide as substrate preincubated for 20 mins measured after 1 hr by TR-FRET assay
Data set [7] has as its target T1, LSD1/CoREST complex. This is another data set of the same source.
Description: Inhibition of recombinant human KDM1A/CoREST complex expressed in Escherichia coli using H3K4me1 peptide as substrate preincubated for 15 mins with enzyme followed by substrate addition measured after 12 mins by Amplex Ultra Red reagent based HRP enzyme coupled assay
Data set [8] concerns the target Lysine-specific histone demethylase 1A (Homo sapiens) (UniProt O60341). Kind of data set: Inhibition of KDM1A in human THP1 cells assessed as increase in CD11b mRNA expression level at 1 uM after 24 hrs by qRT-PCR analysis relative to control. In kind it is cell-based. (In qPCR the cycle at which signal appears reflects the starting amount.)
For data set [9], the system named is THP-1. Kind of data set: Induction of cell death in human THP1 cells at 1 uM after 72 hrs by propidium iodide staining based flow cytometry. Format: functional. (A flow cytometer gives signals particle by particle.)
Data set [10] has as its system THP-1. The data set is described as follows: Induction of apoptosis in human THP1 cells at 1 uM after 72 hrs by Annexin V-propidium iodide staining based flow cytometry. In kind it is functional, cell-based.
Data set [11] addresses Lysine-specific histone demethylase 1A (Homo sapiens) (UniProt O60341). Kind of data set: Inhibition of KDM1A in human THP1 cells assessed as increase in CD14 mRNA expression level at 1 uM after 24 hrs by qRT-PCR analysis relative to control. Format: cell-based.
The subject of data set [12] is THP-1. Kind of data set: Anticlonogenic activity against human THP1 cells assessed as inhibition of colony formation at 5 uM after 13 days relative to control. Format: functional. The settings on record: THP-1, 312 h.
The target of data set [13] is Lysine-specific histone demethylase 1A (Homo sapiens) (UniProt O60341). The data set is described as follows: Inhibition of KDM1A in human THP1 cells assessed as increase in CD86 mRNA expression level at 5 uM after 24 hrs by qRT-PCR analysis relative to control. In kind it is cell-based.
The test system of data set [14] is THP-1. The data set is described as follows: Induction of cell death in human THP1 cells at 0.5 uM after 72 hrs by propidium iodide staining based flow cytometry. Format: functional.
In data set [15] the test system is THP-1. Kind of data set: Anticlonogenic activity against human THP1 cells assessed as inhibition of colony formation at 0.5 uM after 13 days relative to control. Format: functional. The settings on record: THP-1, 312 h.
In data set [16] the test system is THP-1. The data set is described as follows: Induction of apoptosis in human THP1 cells at 0.5 uM after 72 hrs by Annexin V-propidium iodide staining based flow cytometry. Format: functional, cell-based.
In data set [17] the test system is CC(=O)c1ccc(CN2CCC3(CCNCC3)C2)cc1. The conditions noted are these: Homo sapiens.
Description: Inhibition of recombinant human KDM1A/CoREST complex expressed in Escherichia coli assessed as Km for substrate using H3K4me1 peptide as substrate preincubated for 15 mins followed by substrate addition measured for 12 mins by Lineweaver-Burk plot analysis

Active and inactive are the calls of the source. The calls are words filed in the database; no cut-off is given here.

What is called IC50 is the concentration at which inhibition is half-maximal. What is called Ki is a dissociation constant, usually derived from enzyme kinetics or from competition with a known ligand. What is called inhibition is the change of the read-out against control, counted positive when it falls. The term Km denotes the concentration of substrate that gives half-maximal velocity.

Consider `Cc1nc(-n2nc(-c3cccs3)cc2NC(=O)COc2ccccc2F)[nH]c(=O)c1C`, for which the IC50 in data set [1] stood at 0.76 µM.
For the compound `COCc1cccc(NC(=O)c2cc3sccc3n2C)c1`, the IC50 was 56.8 µM in data set [2], greater than 100 µM in data set [3] and greater than 100 µM in [4].
Take `CC(=O)c1ccc(CN2CCC3(CCNCC3)C2)cc1`: the IC50 was 42.5 µM in [2]; greater than 100 µM in data set [3]; 5 µM in data set [1]; 8.1 µM in [6]; 82.4 µM in data set [7]. Besides, the Ki in [5] came out at 48.4 µM.
With `CN1CCC(Oc2ccc(OCc3cccc(NC(=O)c4cc5sccc5n4C)c3)cc2)CC1`, the half-maximal inhibitory concentration (IC50) in [2] is 7.6 µM; in data set [3], greater than 100 µM; in [6] it was 0.44 to 0.442 µM; in data set [4], greater than 100 µM. The fold change (FC) in [8] stood at 4.76; in data set [11], 2.76. Further, the result in data set [9] and in [10] was inactive.
With `Cc1oc(-c2ccc(Cl)cc2[N+](=O)[O-])cc1C(=O)Nc1ccccc1`, in [1], the IC50 turned out to be 3.5 µM.
As for `Cn1c(C(=O)Nc2cccc(COc3ccc(OC4CCNCC4)cc3)c2)cc2sccc21`, the IC50 was 7.16 µM in [2], greater than 100 µM in data set [3], 0.16 to 0.162 µM in data set [6] and greater than 100 µM in [4]. For the same compound, the values for the fold change (FC) in [8], in data set [13] and in [11] were 4.61, 14.3 and 4.79, respectively. Moreover, the result in data set [9] and in data set [10] was inactive. In data set [12], the inhibition at 5 µM was 29.5%.
As for `NC1CCC(N[C@@H]2C[C@H]2c2ccccc2)CC1` (stereo not given in full), the result in data set [14] and in data set [16] was inactive. The IC50 in data set [3] was found to be 48.3 µM; in data set [4], 43.4 µM. The inhibition at 0.5 µM in [15] was 70%.
As to “LSD1/CoREST complex (Homo sapiens) (from UniProt O60341+Q9UKL0)”, the Km in data set [17] was 1.4 µM.
